Patent publication US11535754B2, “Silicon containing detectable compounds and uses thereof” (Singular Genomics Systems, Inc., priority 2019, dated 2022)

Assay: Absorption maximum (λmax) of the azasiline dyes, from the HPLC / LC-MS absorption profile
Format: physicochemical
Settings: absorption profile from HPLC/LC-MS analysis (FIGS. 1A-1B: 100 mM TEAA and ACN); value for compound 4 from initial attempts to quantify the absorption
Procedure: FIGS. 1A-1B. Absorption profile for compound 2 (FIG. 1A) and compound 3 (FIG. 1B), as described herein: HPLC chromatogram of the reaction mixture with 100 mM triethylammonium acetate (TEAA) and acetonitrile (ACN).
A mixture of 1a (0.155 mmol) and hydrochloric acid (0.053 mL) in absolute ethanol (1.6 mL) was cooled to 0° C., to which a solution of sodium nitrite (12.1 mg in 0.107 mL) in water was added and stirred for 3 hours after which the solid (dark green crystals) was filtered off. It was diluted with ethanol (1 mL) and 0.02 mL of 1N HCl was added to the mixture. The resulting mixture was refluxed for 4 hours. The progress of the reaction was monitored by HPLC using triethylammonium acetate (TEAA) and acetonitrile (ACN) as the mobile phases on reverse phase (RP) C18 column. The formation of the product was confirmed by mass analysis and HPLC analysis based on the wavelength (see FIG. TA). […]
Synthesis of compound 3. […] The reaction mixture was stirred for overnight and the progress of the reaction was monitored by LC-MS analysis to generate compound 3 (λmax 810 nm); see FIG. 1B.
Synthesis of compound 4. […] The reaction mixture was stirred for overnight and the progress of the reaction was monitored by LC-MS analysis to generate and confirm the presence of compound 4.

CN1CCCc2cc3c(cc21)[Si](C)(C)c1cc2c(cc1=N3)CCC[N+]=2C [compound 4]
absorption maximum (λmax): greater than 850 nm
